Measured values taken from patent US20250186437A1, “CARBOLINE COMPOUNDS AND USE THEREOF” (PTC Therapeutics, Inc., priority 2021, published 2025).

Tested on: MOLM-13 cells
Assay: MOLM-13 Cell Proliferation Assay (indicator of DHODH inhibition)
Type: cell-based
Conditions: Homo sapiens, 72 Hours of culture, CellTiter-Glo, no uridine
Procedure: The following assay was conducted to measure proliferation of MOLM-13 cells in the presence of each compound studied. This assay was included as an indicator of DHODH inhibition, as growth of MOLM-13 cells is known to depend on synthesis of pyrimidines using the de novo pathway, which can be blocked by inhibition of DHODH. • 1. MOLM-13 cells were cultured in RPMI 1640 medium+10% Fetal Bovine Serum (FBS). Only low passage cells (<20) were used for the compound tests • 2. On day 1, Log-phase growing Molm-13 Cells were counted and diluted to 10^5 cells/mL in RPMI 1640 medium+10% FBS • 3. 100 μL of diluted MOLM-13 cells in 96 well white plates were seeded, for a final density of 10^4 cells/well. • 4. 0.5 μL of pre-diluted 200× compounds or DMSO control was added to each well. The final DMSO concentration was 0.5%. • 5. After 72 Hours of culture at 37° C., 5% CO2, the plates were taken out and cooled to RT, then 50 μL CellTiter-Glo® (Promega) was added, and the composition was mixed at RT for 10 minutes. • 6. The plates were then read by ViewLux (Speed-fast, Gain-High, Bining-1X, 5 seconds).

IC50 [nM] | SMILES
43.2 | Fc1cnc(N2CCc3c([nH]c4cc(F)c(Cl)cc34)C2c2ccc(C(F)(F)F)cc2)nc1 (centres unmarked) [Compound 35, 6-chloro-7-fluoro-2-(5-fluoropyrimidin-2-yl)-1-[4-(trifluoromethyl)phenyl]-2,3,4,9-tetrahydro-1H-pyrido[3,4-b]indole]
23.4 | Fc1cnc(N2CCc3c([nH]c4cc(F)c(Cl)cc34)C2c2cccc(F)c2F)nc1 (centres unmarked) [Compound 36, 6-chloro-1-(2,3-difluorophenyl)-7-fluoro-2-(5-fluoropyrimidin-2-yl)-2,3,4,9-tetrahydro-1H-pyrido[3,4-b]indole]
89.6 | Fc1cnc(N2CCc3c([nH]c4cc(F)c(Cl)cc34)C2c2ccc(F)c(F)c2)nc1 (centres unmarked) [Compound 37, 6-chloro-1-(3,4-difluorophenyl)-7-fluoro-2-(5-fluoropyrimidin-2-yl)-2,3,4,9-tetrahydro-1H-pyrido[3,4-b]indole]
24.3 | Cc1ccnc(N2CCc3c([nH]c4cc(F)c(Cl)cc34)C2c2ccc(Cl)cc2)n1 (centres unmarked) [Compound 38, 6-chloro-1-(4-chlorophenyl)-7-fluoro-2-(4-methylpyrimidin-2-yl)-2,3,4,9-tetrahydro-1H-pyrido[3,4-b]indole]
10.3 | Fc1cc2[nH]c3c(c2cc1Cl)CCN(c1nccc(Cl)n1)C3c1ccc(Cl)cc1 (centres unmarked) [Compound 39, 6-chloro-1-(4-chlorophenyl)-2-(4-chloropyrimidin-2-yl)-7-fluoro-2,3,4,9-tetrahydro-1H-pyrido[3,4-b]indole]
22.4 | N#Cc1ccnc(N2CCc3c([nH]c4cc(F)c(Cl)cc34)C2c2ccc(Cl)cc2)n1 (centres unmarked) [Compound 40, 2-[6-chloro-1-(4-chlorophenyl)-7-fluoro-1,3,4,9-tetrahydro-2H-pyrido[3,4-b]indol-2-yl]pyrimidine-4-carbonitrile]
19.6 | Cc1ccc(C2c3[nH]c4cc(F)c(Cl)cc4c3CCN2c2ncc(Cl)cn2)cc1 (centres unmarked) [Compound 41, 6-chloro-2-(5-chloropyrimidin-2-yl)-7-fluoro-1-(4-methylphenyl)-2,3,4,9-tetrahydro-1H-pyrido[3,4-b]indole]
20.3 | Cc1ccc(C2c3[nH]c4cc(F)c(Cl)cc4c3CCN2c2nccc(C)n2)cc1 (centres unmarked) [Compound 42, 6-chloro-7-fluoro-1-(4-methylphenyl)-2-(4-methylpyrimidin-2-yl)-2,3,4,9-tetrahydro-1H-pyrido[3,4-b]indole]
6 | Cc1ccc(C2c3[nH]c4cc(F)c(Cl)cc4c3CCN2c2nccc(Cl)n2)cc1 (centres unmarked) [Compound 43, 6-chloro-2-(4-chloropyrimidin-2-yl)-7-fluoro-1-(4-methylphenyl)-2,3,4,9-tetrahydro-1H-pyrido[3,4-b]indole]
14.7 | Cc1ccc(C2c3[nH]c4cc(F)c(Cl)cc4c3CCN2c2nccc(C#N)n2)cc1 (centres unmarked) [Compound 44, 2-[6-chloro-7-fluoro-1-(4-methylphenyl)-1,3,4,9-tetrahydro-2H-pyrido[3,4-b]indol-2-yl]pyrimidine-4-carbonitrile]
32.2 | Fc1cc2[nH]c3c(c2cc1Cl)CCN(c1ncccn1)C3c1ccc(C2CC2)cc1 (centres unmarked) [Compound 45, 6-chloro-1-(4-cyclopropylphenyl)-7-fluoro-2-(pyrimidin-2-yl)-2,3,4,9-tetrahydro-1H-pyrido[3,4-b]indole]
6.5 | Cc1cc(Cl)nc(N2CCc3c([nH]c4cc(F)c(Cl)cc34)C2c2ccc(F)cc2)n1 (centres unmarked) [Compound 46, 6-chloro-2-(4-chloro-6-methylpyrimidin-2-yl)-7-fluoro-1-(4-fluorophenyl)-2,3,4,9-tetrahydro-1H-pyrido[3,4-b]indole]
222 | Oc1ccc(C2c3[nH]c4cc(F)c(Cl)cc4c3CCN2c2ncc(F)cn2)cn1 (centres unmarked) [Compound 48, 5-[6-chloro-7-fluoro-2-(5-fluoropyrimidin-2-yl)-2,3,4,9-tetrahydro-1H-pyrido[3,4-b]indol-1-yl]pyridin-2-ol]

SMILES | IC50 [nM]
Fc1cnc(N2CCc3c([nH]c4cc(F)c(Cl)cc34)C2c2ccc(F)nc2)nc1 (centres unmarked) [Compound 47, 6-chloro-7-fluoro-1-(6-fluoropyridin-3-yl)-2-(5-fluoropyrimidin-2-yl)-2,3,4,9-tetrahydro-1H-pyrido[3,4-b]indole] | 140
